Test results reported in patent publication US7557098B2, “1-aryl- or 1-alkylsulfonyl-heterocyclylbenzazoles as 5-hydroxytryptamine-6 ligands” (Wyeth, priority 2000, dated 2009).
Counter-ions that a name gives are not always drawn. Like-named read-outs stand apart in the source and are kept apart here.

Columns and labels:
[1] = target: T1, human cloned 5-HT6 receptors (Homo sapiens, UniProt P50406); experiment: 5-HT6 binding affinity, [3H]-LSD displacement on membranes of Hela cells expressing human cloned 5-HT6 receptors
T1 construct: expressed in transfected cells; host or cells: Hela cells

[2] = [3H]-LSD 3.0 nM, Hela cell membranes, 120 min at room temperature, read-out: 5-HT6 binding Ki

T1 sequence (P50406 whole entry): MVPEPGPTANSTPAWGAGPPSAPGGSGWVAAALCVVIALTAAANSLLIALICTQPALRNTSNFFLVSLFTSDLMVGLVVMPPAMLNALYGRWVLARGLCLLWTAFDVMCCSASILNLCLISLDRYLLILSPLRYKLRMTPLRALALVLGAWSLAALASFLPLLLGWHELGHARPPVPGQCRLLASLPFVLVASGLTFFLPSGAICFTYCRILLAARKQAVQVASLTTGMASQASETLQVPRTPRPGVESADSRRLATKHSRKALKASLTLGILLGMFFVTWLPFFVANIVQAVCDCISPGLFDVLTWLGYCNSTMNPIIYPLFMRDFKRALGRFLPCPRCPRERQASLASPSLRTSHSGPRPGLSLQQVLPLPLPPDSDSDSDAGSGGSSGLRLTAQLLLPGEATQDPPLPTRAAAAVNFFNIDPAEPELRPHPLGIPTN

Structure (SMILES): O=S(=O)(c1c(Cl)nc2sccn12)n1ccc2c(N3CCNCC3)cccc21 [Example 3]
- Ki [1]: 1 nM

Structure (SMILES): CCCN1CCN(c2cccc3c2cnn3S(=O)(=O)c2ccccc2)CC1 [Example 64]
- Ki [1, 2]: 2 nM
- melting point: 258 to 260 °C

Structure (SMILES): Cc1nn(C)c(Cl)c1S(=O)(=O)n1ccc2cc(N3CCNCC3)ccc21 [Example 86]
- Ki [1, 2]: 44 nM

Structure (SMILES): COc1ccc(S(=O)(=O)n2ccc3c(N4CCN(Cc5ccncc5)CC4)cccc32)cc1OC [Example 49]
- Ki [1, 2]: 10 nM

Structure (SMILES): O=S(=O)(c1ccc2ccccc2c1)n1ncc2ccc(N3CCNCC3)cc21 [Example 96]
- Ki [1, 2]: 37 nM

Structure (SMILES): COc1ccc(S(=O)(=O)n2ccc3c(N4CCN(Cc5cccc([N+](=O)[O-])c5)CC4)cccc32)cc1OC [Example 33]
- Ki [1, 2]: 45 nM

Structure (SMILES): O=S(=O)(c1ccc(I)cc1)n1ncc2cc(N3CCNCC3)ccc21 [Example 101]
- Ki [1, 2]: 18 nM

Structure (SMILES): O=C(CN1CCN(c2cccc3c2cnn3S(=O)(=O)c2ccccc2)CC1)c1ccccc1 [Example 62]
- Ki [1, 2]: 12 nM
- melting point: 202 to 205 °C

Structure (SMILES): COc1cccc(CN2CCN(c3cccc4c3ccn4S(=O)(=O)c3ccc(N)cc3)CC2)c1 [Example 51]
- Ki [1, 2]: 7 nM

Structure (SMILES): O=S(=O)(c1c(Cl)nc2sccn12)n1ccc2c(N3CCN(Cc4cccnc4)CC3)cccc21 [Example 47]
- Ki [1, 2]: 6 nM

Structure (SMILES): CC(=O)N1CCN(c2cccc3c2ccn3S(=O)(=O)c2c(Cl)nc3sccn23)CC1 [Example 30]
- Ki [1, 2]: 220 nM

Structure (SMILES): CCCCOc1ccc(S(=O)(=O)n2ccc3cc(N4CCNCC4)ccc32)cc1 [Example 83]
- Ki [1, 2]: 38 nM

Structure (SMILES): O=S(=O)(c1ccccc1)n1ncc2c(N3CCN(CCOc4ccc(F)cc4)CC3)cccc21 [Example 60]
- Ki [1, 2]: 306 nM
- melting point: 184 to 186 °C

Structure (SMILES): O=S(=O)(c1ccccc1)n1ncc2c(N3CCN(CCc4ccccc4)CC3)cccc21 [Example 59, 4-[4-(2-phenylethyl)piperazin-1-yl]-1-(phenylsulfonyl)-1H-indazole hydrochloride]
- Ki [1, 2]: 1 nM

Structure (SMILES): Nc1ccc(S(=O)(=O)n2ccc3c(N4CCN(Cc5cccc([N+](=O)[O-])c5)CC4)cccc32)cc1 [Example 38]
- Ki [1, 2]: 5 nM

Structure (SMILES): Cc1ccc(S(=O)(=O)n2ncc3c(N4CCN(Cc5ccccc5)CC4)cccc32)cc1 [Example 72]
- Ki [1, 2]: 56 nM
- melting point: 215 to 217 °C

Structure (SMILES): O=S(=O)(c1ccc(Br)s1)n1ncc2cc(N3CCNCC3)ccc21 [Example 81]
- Ki [1]: 44 nM

Structure (SMILES): Nc1ccc(S(=O)(=O)n2ccc3c(N4CCN(Cc5ccc(Cl)s5)CC4)cccc32)cc1 [Example 37]
- Ki [1, 2]: 59 nM

Structure (SMILES): O=S(=O)(c1ccccc1)n1ccc2c(N3CCN(C4=NCCN4)CC3)cccc21 [Example 14, 4-[4-(4,5-Dihydro-1H-imidazol-2-yl)-piperazin-1-yl]-1-(phenylsulfonyl)-1H-indole]
- Ki [1]: 24 nM

Structure (SMILES): O=S(=O)(c1c(Cl)nc2sccn12)n1ccc2c(N3CCN(Cc4ccncc4)CC3)cccc21 [Example 46]
- Ki [1, 2]: 5 nM

Structure (SMILES): O=S(=O)(c1ccc(Br)cc1)n1ncc2cc(N3CCNCC3)ccc21 [Example 79]
- Ki [1, 2]: 19 nM

Structure (SMILES): COc1ccc(S(=O)(=O)n2ccc3c(N4CCN(Cc5cccnc5)CC4)cccc32)cc1OC [Example 50]
- Ki [1, 2]: 17 nM

Structure (SMILES): O=S(=O)(c1ccccc1)n1ncc2c(N3CCN(Cc4ccccc4)CC3)cccc21 [Example 57, 4-(4-Benzylpiperazin-1-yl)-1-(phenylsulfonyl)-1H-indazole hydrochloride]
- Ki [1, 2]: 14 nM

Structure (SMILES): O=S(=O)(C=Cc1ccccc1)n1ncc2c(N3CCN(Cc4ccccc4)CC3)cccc21 [Example 65]
- Ki [1, 2]: 172 nM
- melting point: 233 to 235 °C

Structure (SMILES): COc1cccc(CN2CCN(c3cccc4c3ccn4S(=O)(=O)c3ccc(OC)c(OC)c3)CC2)c1 [Example 48]
- Ki [1, 2]: 14 nM

Structure (SMILES): COc1cccc(CN2CCN(c3cccc4c3ccn4S(=O)(=O)c3ccccc3Br)CC2)c1 [Example 42]
- Ki [1, 2]: 4 nM

Structure (SMILES): O=S(=O)(c1ccccc1Br)n1ccc2c(N3CCN(Cc4cccnc4)CC3)cccc21 [Example 44]
- Ki [1, 2]: 1 nM

Structure (SMILES): O=S(=O)(c1ccccc1Br)n1ccc2c(N3CCN(Cc4ccncc4)CC3)cccc21 [Example 43]
- Ki [1, 2]: 7 nM

Structure (SMILES): Cc1c(S(=O)(=O)n2ncc3ccc(N4CCNCC4)cc32)sc2ccc(Cl)cc12 [Example 89]
- Ki [1, 2]: 24 nM

Structure (SMILES): O=S(=O)(c1cc(Cl)c(Cl)s1)n1ncc2ccc(N3CCNCC3)cc21 [Example 91]
- Ki [1, 2]: 6 nM

Structure (SMILES): O=C(CCCN1CCN(c2cccc3c2cnn3S(=O)(=O)c2ccccc2)CC1)c1ccc(F)cc1 [Example 61]
- Ki [1, 2]: 3 nM

Structure (SMILES): Nc1ccc(S(=O)(=O)n2ccc3c(N4CCN(Cc5ccccc5)CC4)cccc32)cc1 [Example 35]
- Ki [1, 2]: 15 nM

Structure (SMILES): O=S(=O)(c1ccc(F)cc1)n1ncc2c(N3CCN(Cc4ccccc4)CC3)cccc21 [Example 66]
- Ki [1, 2]: 84 nM
- melting point: 240 to 241 °C

Structure (SMILES): O=S(=O)(c1ccc(OC(F)(F)F)cc1)n1ncc2c(N3CCN(Cc4ccccc4)CC3)cccc21 [Example 70]
- Ki [1, 2]: 251 nM
- melting point: 229 to 231 °C

Structure (SMILES): Nc1ccc(S(=O)(=O)n2ccc3cc(N4CCNCC4)ccc32)cc1 [Example 73, 1-(4-Aminophenylsulfonyl)-5-piperazin-1-yl-1H-indole hydrochloride]
- Ki [1, 2]: 34 nM

Structure (SMILES): O=S(=O)(c1ccccc1)n1ccc2c(N3CCN(Cc4ccncc4)CC3)cccc21 [Example 40]
- Ki [1, 2]: 4 nM

Structure (SMILES): Nc1ccc(S(=O)(=O)n2ccc3c(N4CCNCC4)cccc32)cc1 [Example 5]
- Ki [1]: 1 nM

Structure (SMILES): O=S(=O)(c1ccc(Cl)cc1)n1ncc2c(N3CCN(Cc4ccccc4)CC3)cccc21 [Example 67]
- Ki [1, 2]: 87 nM
- melting point: 238 to 239 °C

Structure (SMILES): O=S(=O)(c1ccccc1)n1ccc2c(N3CCN(Cc4cccnc4)CC3)cccc21 [Example 41]
- Ki [1, 2]: 7 nM

Structure (SMILES): COc1ccc(S(=O)(=O)n2ncc3c(N4CCN(Cc5ccccc5)CC4)cccc32)cc1 [Example 69]
- Ki [1, 2]: 116 nM
- melting point: 206 to 209 °C

Structure (SMILES): O=S(=O)(c1c(Cl)nc2sccn12)n1ccc2c(N3CCN(Cc4ccccc4)CC3)cccc21 [Example 27]
- Ki [1, 2]: 56 nM

Structure (SMILES): Nc1ccc(S(=O)(=O)n2ccc3c(N4CCN(C5=NCCN5)CC4)cccc32)cc1 [Example 18]
- Ki [1, 2]: 6 nM

Structure (SMILES): CN1CCN(c2cccc3c2ccn3S(=O)(=O)c2ccc(N)cc2)CC1 [Example 36]
- Ki [1, 2]: 3 nM

Structure (SMILES): O=S(=O)(c1ccccc1Br)n1ccc2c(N3CCNCC3)cccc21 [Example 2]
- Ki [1]: 2 nM

Structure (SMILES): Nc1ccc(S(=O)(=O)n2ccc3c(N4CCN(Cc5ccncc5)CC4)cccc32)cc1 [Example 52]
- Ki [1, 2]: 25 nM

Structure (SMILES): O=S(=O)(c1ccccc1)n1ncc2c(N3CCN(CCCc4ccccc4)CC3)cccc21 [Example 63]
- Ki [1, 2]: 6 nM
- melting point: 188 to 190 °C

Structure (SMILES): O=S(=O)(c1cc(Cl)c(Cl)s1)n1ncc2c(N3CCN(Cc4ccccc4)CC3)cccc21 [Example 71]
- Ki [1, 2]: 81 nM
- melting point: 235 to 237 °C

Structure (SMILES): O=S(=O)(c1ccccc1)n1ncc2c(N3CCNCC3)cccc21 [Example 58, 1-(Phenylsulfonyl)-4-(1-piperazinyl)-1H-indazole hydrochloride]
- Ki [1]: 0.3 nM

Structure (SMILES): O=S(=O)(c1cc(Cl)c(Cl)s1)n1ncc2cc(N3CCNCC3)ccc21 [Example 90]
- Ki [1, 2]: 30 nM

Structure (SMILES): Nc1ccc(S(=O)(=O)n2ccc3c(N4CCN(Cc5cccnc5)CC4)cccc32)cc1 [Example 53]
- Ki [1, 2]: 4 nM
